Values joined by “and” are separate entries in the source; they are usually repeats but may differ in a detail not shown here. Equal values may be shown once.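 Results reflect a 48-hour exposure of cells in 96-well plates to compound at five concentrations. Here, GI50 denotes the concentration required for 50% inhibition of growth. TGI is the concentration that stops growth completely.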
Key:
Experiment in all cases: NCI-60 cell line screen, 48 h
HL-60(TB) leukemia = system: HL-60(TB) leukemia
HCT-116 colon = system: HCT-116 colon
OVCAR-5 ovarian = system: OVCAR-5 ovarian
NCI-H23 lung = system: NCI-H23 lung
UO-31 renal = system: UO-31 renal
A498 renal = system: A498 renal
RPMI-8226 leukemia = system: RPMI-8226 leukemia
HCC-2998 colon = system: HCC-2998 colon
HOP-62 NSCLC = system: HOP-62 NSCLC
SK-OV-3 ovarian = system: SK-OV-3 ovarian

Row | Structure (SMILES) | GI50 (HL-60(TB) leukemia) | TGI (HL-60(TB) leukemia) | GI50 (HCT-116 colon) | TGI (HCT-116 colon) | GI50 (OVCAR-5 ovarian) | TGI (OVCAR-5 ovarian) | GI50 (NCI-H23 lung) | TGI (NCI-H23 lung) | GI50 (UO-31 renal) | TGI (UO-31 renal) | GI50 (A498 renal) | TGI (A498 renal) | GI50 (RPMI-8226 leukemia) | TGI (RPMI-8226 leukemia) | GI50 (HCC-2998 colon) | TGI (HCC-2998 colon) | GI50 (HOP-62 NSCLC) | TGI (HOP-62 NSCLC) | GI50 (SK-OV-3 ovarian) | TGI (SK-OV-3 ovarian)
1 | CC1(C)CC(n2cnc(-c3ccc(F)cc3)c2-c2ccnc(N)n2)CC(C)(C)N1 | > 25 µM | > 25 µM | 15.1 µM | > 25 µM | 24.4 µM | > 25 µM | > 25 µM | > 25 µM | 16.6 µM | > 25 µM | > 25 µM | > 25 µM | > 25 µM | > 25 µM | > 25 µM | > 25 µM | > 16.8 µM | > 25 µM | 23.6 µM | > 25 µM
2 | c1ccc2c(c1)-c1ccccc1C2N1CC2CCC(CC2)C1 |  | 11.2 µM |  | 46.9 µM |  | 37.2 µM |  | 47.5 µM |  | 94.6 µM |  | 40.1 µM |  | 46 µM |  | 31.4 µM |  | 62 µM |  | > 100 µM
3 | O=c1[nH]ccc2nc(N3CCC(O)CC3)nc(Nc3cccc(C(F)(F)F)c3)c12 | 0.863 µM | 5.06 µM | 0.88 µM | 12.3 µM | 28.3 µM | 94.3 µM | 3.24 µM | 13.9 µM | 0.785 µM | 23 µM | 2.5 µM | > 100 µM | 2.95 µM | 92 µM | 11.2 µM | 38.4 µM | 4.4 µM | 18.8 µM | 0.486 µM | > 100 µM
4 | O=C(Nc1ccc(F)cc1)C(=O)C(C1OC(=O)c2ccccc21)[N+](=O)[O-] (configuration not stated) |  | > 100 µM |  | > 100 µM |  | > 100 µM |  | > 100 µM |  | > 100 µM |  | > 100 µM |  | > 100 µM |  | > 100 µM |  | > 100 µM |  | > 100 µM
5 | Nc1cc(-c2cccc(OC(F)(F)F)c2)nc2ccc(N3CCCC3)cc12 | 0.0303 µM and 0.0249 µM and 0.0248 µM | 0.0888 µM and 0.0712 µM and 0.32 µM | 0.0384 µM and 0.0323 µM and 0.0258 µM |  | 0.113 µM and 0.0843 µM and 0.0687 µM | 99.2 µM and > 100 µM | 0.0716 µM and 0.0803 µM and 0.0609 µM | 43.1 µM and > 100 µM | 0.119 µM and 0.15 µM and 0.0758 µM | 17.7 µM and > 100 µM | 0.0271 µM and 0.023 µM and 0.0266 µM | 0.193 µM and 0.0936 µM and 0.257 µM | 0.0479 µM and 0.0404 µM and 0.0447 µM | 7.32 µM and > 33.2 µM and > 64.9 µM | 0.037 µM and 0.0351 µM and 0.0371 µM |  | 0.0463 µM and 0.0508 µM and 0.0489 µM | 22 µM and > 100 µM | 0.071 µM and 0.0456 µM and 0.0406 µM | > 100 µM
6 | COC(=O)C12CC3CC(C1)CC(C(=O)OC)(C3)C2 |  | > 100 µM |  | > 100 µM |  | > 100 µM |  | > 100 µM |  | > 100 µM |  | > 100 µM |  | > 100 µM |  | > 100 µM |  | > 100 µM |  | > 100 µM
7 | C=CCN1C=CC(=O)[C@H](O[Si](C)(C)C(C)(C)C)[C@@H]1/C=C/c1ccccc1 | 3.36 µM | 20.2 µM | 6.96 µM | 19.9 µM | 17.5 µM | 31.9 µM | 13.8 µM | 27.9 µM | 9.19 µM | 25.1 µM | 13.2 µM | 26.1 µM | 13.6 µM | 45.2 µM | 16.2 µM | 30.3 µM | 15.1 µM | 28.9 µM | 14.9 µM | 28.6 µM
8 | CCN=c1cc2sc3cc(NCC)c(C)cc3nc-2cc1C | 1.66 µM | 8.48 µM | 0.361 µM | 2.01 µM | 2.51 µM | 9.26 µM | 0.437 µM | 3.69 µM | 2.16 µM | 16.4 µM | 14 µM | 53.4 µM | 0.233 µM | 3.45 µM | 3.5 µM | 11.8 µM | 2.09 µM | 7.34 µM | 2.58 µM | 12.6 µM
9 | C=CCN(CC=C)C(=O)c1cc(C)nc2c1c(=O)n(-c1ccccc1)c(=O)n2CC(O)CN1CCN(c2ncccn2)CC1 (configuration not stated) | > 100 µM | > 100 µM | > 100 µM | > 100 µM | > 100 µM | > 100 µM | > 100 µM | > 100 µM | > 100 µM | > 100 µM | > 100 µM | > 100 µM | > 100 µM | > 100 µM | > 100 µM | > 100 µM | 21.1 µM | > 100 µM | > 100 µM | > 100 µM
10 | O=[N+]([O-])c1ccc(N=Nc2c(O)ccc3ccccc23)cc1 | 38.4 µM and > 100 µM | > 100 µM |  | > 100 µM |  | > 100 µM | 42.9 µM and > 100 µM | > 100 µM |  | > 100 µM |  | > 100 µM |  | > 100 µM |  | > 100 µM | 14.5 µM and > 100 µM | 37.4 µM and > 100 µM | 20.2 µM and > 100 µM | > 100 µM
11 | Cc1cc(-c2nnc(N)nc2-c2ccc(F)cc2)cc(Cl)n1 | 33.6 µM | > 100 µM | 75.4 µM | > 100 µM | > 100 µM | > 100 µM | 54.3 µM | > 100 µM | 24.3 µM | > 100 µM | 49 µM | > 100 µM | 37.3 µM | > 100 µM | > 100 µM | > 100 µM | > 100 µM | > 100 µM | > 100 µM | > 100 µM
12 | Cc1ccc(-c2nc(N)nc3c2nnn3Cc2cccc(CO[C@H]3CCOC3)n2)o1 | > 100 µM | > 100 µM | > 100 µM | > 100 µM | > 100 µM | > 100 µM | > 100 µM | > 100 µM | > 100 µM | > 100 µM | 69.9 µM | > 100 µM | > 100 µM | > 100 µM | > 100 µM | > 100 µM | > 100 µM | > 100 µM | > 100 µM | > 100 µM
13 | COc1cc(C(=O)C/C(CCC(=O)Nc2ccc(Cl)cc2C)=N/NC(=O)C(N)=O)ccc1O |  | > 100 µM |  | > 100 µM |  | > 100 µM |  | > 100 µM |  | > 100 µM |  | > 100 µM |  | > 100 µM |  | > 100 µM |  | > 100 µM |  | > 100 µM
14 | COC(=O)C12C3C4C5C3(C#N)C1C5(C(=O)OC)C42C(=O)N(C(C)C)C(C)C (configuration not stated) |  | > 60 µM |  | > 100 µM |  | > 100 µM |  | > 100 µM |  | > 100 µM |  | > 100 µM |  | > 69.3 µM |  | > 100 µM |  | > 100 µM |  | > 100 µM
15 | COc1cc(C(c2cc3c(cc2O)OCO3)N2CCCCC2)cc(OC)c1OC (configuration not stated) |  | 4.16 µM |  | 30.4 µM |  | 32.2 µM |  | 31.8 µM |  | 28.3 µM |  | 35.5 µM |  | > 26.9 µM |  | 39 µM |  | > 70.9 µM |  | 56.2 µM

— PubChem BioAssay (NCI)
